Patent publication US11548870B2, “Compounds useful as inhibitors of helios protein” (Bristol-Myers Squibb Company, priority 2019, dated 2023)

Tests used:
Ikaros = biological target: T1, Ikaros (Homo sapiens, UniProt Q13422); assay: Helios Cellular Degradation Assay, Ikaros readout (flow cytometry, Ikaros-Alexa488 antibody staining, 72 h); assay type: cell-based; settings: Jurkat cells, 72 h incubation, flow cytometry; for Dmax: Jurkat, read-out: Ikaros Dmax
T1 construct: fluorescently labelled antibodies against Helios and Ikaros; endogenous in cells; host or cells: Jurkat cells
Method in brief: (§1)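 Flow cytometry of fixed, permeabilized Jurkat cells stained with anti-Helios-PE and anti-Ikaros-Alexa488 (1 h, room temperature) measured remaining protein. Treatment lasted 72 h at 37 °C, 5% CO2, at 80,000 cells/well in RPMI with 10% FBS.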

Helios = biological target: T2, Helios (Homo sapiens, UniProt Q96SW2+Q9UKS7); assay: Helios Cellular Degradation Assay (flow cytometry, Helios-PE antibody staining, 72 h); assay type: cell-based; settings: Jurkat cells, 72 h incubation, flow cytometry; for Dmax: Jurkat, read-out: Helios Dmax
T2 construct: fluorescently labelled antibodies against Helios and Ikaros; endogenous in cells; host or cells: Jurkat cells
Method in brief: as §1

T1 sequence (Q96SW2 whole entry partner): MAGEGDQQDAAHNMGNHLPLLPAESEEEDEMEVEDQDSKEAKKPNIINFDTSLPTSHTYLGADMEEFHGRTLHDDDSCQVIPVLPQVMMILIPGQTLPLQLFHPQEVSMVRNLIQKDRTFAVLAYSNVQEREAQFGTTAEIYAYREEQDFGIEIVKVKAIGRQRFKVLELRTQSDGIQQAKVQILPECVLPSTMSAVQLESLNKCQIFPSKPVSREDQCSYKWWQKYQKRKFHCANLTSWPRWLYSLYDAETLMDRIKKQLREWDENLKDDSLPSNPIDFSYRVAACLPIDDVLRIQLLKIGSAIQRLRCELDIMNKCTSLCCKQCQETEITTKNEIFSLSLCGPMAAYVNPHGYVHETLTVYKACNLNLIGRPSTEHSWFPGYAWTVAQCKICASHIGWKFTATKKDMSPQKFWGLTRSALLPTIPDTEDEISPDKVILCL
T1 sequence (Q16531 whole entry partner): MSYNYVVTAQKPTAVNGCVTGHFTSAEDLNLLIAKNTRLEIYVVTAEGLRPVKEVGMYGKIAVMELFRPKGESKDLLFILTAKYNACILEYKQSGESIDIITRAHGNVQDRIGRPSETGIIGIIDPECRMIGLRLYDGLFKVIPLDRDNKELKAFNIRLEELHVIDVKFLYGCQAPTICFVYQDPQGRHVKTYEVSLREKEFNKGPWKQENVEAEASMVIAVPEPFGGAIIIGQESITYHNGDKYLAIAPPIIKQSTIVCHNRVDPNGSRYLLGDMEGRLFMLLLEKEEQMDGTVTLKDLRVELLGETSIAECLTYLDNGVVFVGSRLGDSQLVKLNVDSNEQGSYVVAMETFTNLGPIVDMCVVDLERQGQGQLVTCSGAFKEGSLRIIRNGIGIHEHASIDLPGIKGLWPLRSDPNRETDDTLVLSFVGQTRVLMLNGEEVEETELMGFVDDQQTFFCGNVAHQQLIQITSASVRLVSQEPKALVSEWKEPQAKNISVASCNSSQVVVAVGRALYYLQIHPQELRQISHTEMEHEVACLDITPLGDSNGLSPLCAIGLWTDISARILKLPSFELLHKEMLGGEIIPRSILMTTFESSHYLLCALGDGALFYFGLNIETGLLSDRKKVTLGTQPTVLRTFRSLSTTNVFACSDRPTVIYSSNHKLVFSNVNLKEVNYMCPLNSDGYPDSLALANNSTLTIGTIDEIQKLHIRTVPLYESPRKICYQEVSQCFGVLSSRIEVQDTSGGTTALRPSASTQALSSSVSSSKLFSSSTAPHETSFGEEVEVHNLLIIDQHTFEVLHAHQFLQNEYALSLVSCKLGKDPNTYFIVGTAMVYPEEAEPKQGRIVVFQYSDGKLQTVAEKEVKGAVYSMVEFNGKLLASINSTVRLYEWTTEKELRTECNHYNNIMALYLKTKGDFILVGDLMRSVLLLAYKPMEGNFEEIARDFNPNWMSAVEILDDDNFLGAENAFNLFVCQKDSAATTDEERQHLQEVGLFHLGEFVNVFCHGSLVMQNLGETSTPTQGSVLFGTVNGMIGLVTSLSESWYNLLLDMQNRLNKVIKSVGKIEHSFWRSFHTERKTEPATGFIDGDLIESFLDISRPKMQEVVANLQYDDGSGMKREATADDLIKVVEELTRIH
T1 sequence (Q13422 whole entry): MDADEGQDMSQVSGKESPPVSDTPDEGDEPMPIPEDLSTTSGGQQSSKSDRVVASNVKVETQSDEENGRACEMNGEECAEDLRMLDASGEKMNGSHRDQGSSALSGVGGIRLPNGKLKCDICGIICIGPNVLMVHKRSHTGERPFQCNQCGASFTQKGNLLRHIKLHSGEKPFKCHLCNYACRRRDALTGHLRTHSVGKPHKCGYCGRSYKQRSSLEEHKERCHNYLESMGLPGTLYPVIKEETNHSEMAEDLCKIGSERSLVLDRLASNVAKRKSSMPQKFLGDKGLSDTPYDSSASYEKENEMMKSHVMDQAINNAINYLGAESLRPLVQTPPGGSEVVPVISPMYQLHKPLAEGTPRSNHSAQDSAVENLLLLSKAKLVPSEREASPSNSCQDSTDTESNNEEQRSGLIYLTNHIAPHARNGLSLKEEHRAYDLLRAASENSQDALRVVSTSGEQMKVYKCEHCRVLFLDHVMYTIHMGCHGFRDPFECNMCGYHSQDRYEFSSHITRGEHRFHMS
T2 sequence (Q9UKS7 whole entry): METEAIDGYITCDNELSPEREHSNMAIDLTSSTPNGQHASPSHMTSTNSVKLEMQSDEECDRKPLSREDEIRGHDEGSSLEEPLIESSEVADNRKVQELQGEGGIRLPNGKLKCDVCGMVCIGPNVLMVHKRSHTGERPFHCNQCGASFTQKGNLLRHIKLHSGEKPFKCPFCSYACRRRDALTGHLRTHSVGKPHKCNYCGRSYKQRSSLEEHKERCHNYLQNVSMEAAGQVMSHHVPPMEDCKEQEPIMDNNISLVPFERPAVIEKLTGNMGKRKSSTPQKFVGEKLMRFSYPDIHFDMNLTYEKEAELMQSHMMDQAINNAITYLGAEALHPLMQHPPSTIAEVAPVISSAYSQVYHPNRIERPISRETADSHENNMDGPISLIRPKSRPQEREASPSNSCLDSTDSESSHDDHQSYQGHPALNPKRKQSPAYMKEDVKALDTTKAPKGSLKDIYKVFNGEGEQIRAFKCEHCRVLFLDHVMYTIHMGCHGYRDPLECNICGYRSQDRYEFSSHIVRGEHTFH
T2 sequence (Q96SW2 whole entry): as the sequence (Q96SW2 whole entry partner) above
T2 sequence (Q16531 whole entry partner): as the sequence (Q16531 whole entry partner) above

Row | DC50 (Ikaros) [nM] | Dmax (Ikaros) [%] | DC50 (Helios) [nM] | Dmax (Helios) [%] | Ikaros Dmax (Ikaros) [%] | Helios Dmax (Helios) [%] | SMILES
1 | > 10000 | 20 | 82 | 79 |  |  | CN(Cc1ccnc(-c2ccc3c(c2)CN(C2CCC(=O)NC2=O)C3=O)c1)CC1CCCCC1 (centres unmarked) [Example 59, 3-(5-(4-(((cyclohexylmethyl)(methyl)amino)methyl)pyridin-2-yl)-1-oxoisoindolin-2-yl) piperidine-2,6-dione]
2 | > 10000 |  | > 10000 |  | 3 | 29 | CN1CCC(N(C)Cc2ccnc(-c3ccc4c(c3)CN(C3CCC(=O)NC3=O)C4=O)c2)C1 (centres unmarked) [Example 49, 3-(5-(4-((methyl(1-methylpyrrolidin-3-yl)amino)methyl)pyridin-2-yl)-1-oxoisoindolin-2-yl)piperidine-2,6-dione]
3 | > 10000 | 13 | > 10000 | 28 |  |  | Cc1ccc(S(=O)(=O)C2CCN(Cc3ccnc(-c4ccc5c(c4)CN(C4CCC(=O)NC4=O)C5=O)c3)CC2)cc1 (centres unmarked) [Example 132, 3-(1-oxo-5-(4-((4-tosylpiperidin-1-yl)methyl)pyridin-2-yl)isoindolin-2-yl)piperidine-2,6-dione]
4 | > 10000 | 23 | > 10000 | 35 |  |  | O=C1CCC(N2Cc3cc(-c4cc(CN5CCN(C(=O)C6CCCO6)CC5)ccn4)ccc3C2=O)C(=O)N1 (centres unmarked) [Example 32, 3-(1-oxo-5-(4-((4-(tetrahydrofuran-2-carbonyl)piperazin-1-yl)methyl)pyridin-2-yl)isoindolin-2-yl) piperidine-2,6-dione]
5 | > 10000 | 11 | 58 | 95 |  |  | O=C1CCC(N2Cc3cc(-c4cc(CNCC5(O)CCCCC5)ccn4)ccc3C2=O)C(=O)N1 (centres unmarked) [Example 124, 3-(5-(4-((((1-hydroxycyclohexyl)methyl)amino)methyl)pyridin-2-yl)-1-oxoisoindolin-2-yl)piperidine-2,6-dione]
6 | > 10000 | 7 | 45 | 78 |  |  | COC1(C)CN(Cc2ccnc(-c3ccc4c(c3)CN(C3CCC(=O)NC3=O)C4=O)c2)C1 (centres unmarked) [Example 196, 3-(5-(4-((3-methoxy-3-methylazetidin-1-yl)methyl)pyridin-2-yl)-1-oxoisoindolin-2-yl)piperidine-2,6-dione]
7 | > 10000 | 7 | 55 | 70 |  |  | CC(C)(C)CNCc1ccnc(-c2ccc3c(c2)CN(C2CCC(=O)NC2=O)C3=O)c1 (centres unmarked) [Example 65, 3-(5-(4-((neopentylamino)methyl)pyridin-2-yl)-1-oxoisoindolin-2-yl)piperidine-2,6-dione]

The remaining lines, values behind:

Row | SMILES | DC50 (Ikaros) [nM] | Dmax (Ikaros) [%] | DC50 (Helios) [nM] | Dmax (Helios) [%] | Ikaros Dmax (Ikaros) [%] | Helios Dmax (Helios) [%]
8 | O=C1CCC(N2Cc3cc(-c4cc(CNCCN5CCOCC5)ccn4)ccc3C2=O)C(=O)N1 (centres unmarked) [Example 88, 3-(5-(4-(((2-morpholinoethyl)amino)methyl)pyridin-2-yl)-1-oxoisoindolin-2-yl)piperidine-2,6-dione] | > 10000 | 27 | 72 | 102 |  | 
9 | C[C@@H](NCc1ccnc(-c2ccc3c(c2)CN(C2CCC(=O)NC2=O)C3=O)c1)c1ccccc1 (stereo partly drawn) [Example 122, 3-(1-oxo-5-(4-((((R)-1-phenylethyl)amino)methyl)pyridin-2-yl)isoindolin-2-yl)piperidine-2,6-dione] | > 10000 | 4 | 14 | 88 |  | 
10 | O=C1CCC(N2Cc3cc(-c4cc(CNCCOc5ccccc5)ccn4)ccc3C2=O)C(=O)N1 (centres unmarked) [Example 103, 3-(1-oxo-5-(4-(((2-phenoxyethyl)amino)methyl)pyridin-2-yl)isoindolin-2-yl)piperidine-2,6-dione] | > 10000 | 1 | 36 | 95 |  | 
11 | CCCN(C)Cc1ccnc(-c2ccc3c(c2)CN(C2CCC(=O)NC2=O)C3=O)c1 (centres unmarked) [Example 3, 3-(5-(4-((methyl(propyl)amino)methyl)pyridin-2-yl)-1-oxoisoindolin-2-yl)piperidine-2,6-dione] | > 10000 | 3 | 38 | 87 |  | 
12 | CN(Cc1ccnc(-c2ccc3c(c2)CN(C2CCC(=O)NC2=O)C3=O)c1)CC1CCCC1 (centres unmarked) [Example 175, 3-(5-(4-(((cyclopentylmethyl)(methyl)amino)methyl)pyridin-2-yl)-1-oxoisoindolin-2-yl) piperidine-2,6-dione] | > 10000 | 7 | 78 | 78 |  | 
13 | CN(Cc1ccc(-n2ccnc2)cc1)Cc1ccnc(-c2ccc3c(c2)CN(C2CCC(=O)NC2=O)C3=O)c1 (centres unmarked) [Example 177, 3-(5-(4-(((4-(1H-imidazol-1-yl)benzyl)(methyl)amino)methyl)pyridin-2-yl)-1-oxoisoindolin-2-yl)piperidine-2,6-dione] | > 10000 | 12 | > 10000 | 43 |  | 
14 | CCN(C)Cc1ccnc(-c2ccc3c(c2)CN(C2CCC(=O)NC2=O)C3=O)c1 (centres unmarked) [Example 4, 3-(5-(4-((ethyl(methyl)amino)methyl)pyridin-2-yl)-1-oxoisoindolin-2-yl)piperidine-2,6-dione] | > 10000 | 8 | 96 | 84 |  | 
15 | O=C1CCC(N2Cc3cc(-c4cc(CN5CCCC5)ccn4)ccc3C2=O)C(=O)N1 (centres unmarked) [Example 8, 3-(1-oxo-5-(4-(pyrrolidin-1-ylmethyl)pyridin-2-yl)isoindolin-2-yl)piperidine-2,6-dione] | > 10000 | 18 | 26 | 85 |  | 
16 | O=C1CCC(N2Cc3cc(-c4cc(CNC5(C6CC6)CCC5)ccn4)ccc3C2=O)C(=O)N1 (centres unmarked) [Example 77, 3-(5-(4-(((1-cyclopropylcyclobutyl)amino)methyl)pyridin-2-yl)-1-oxoisoindolin-2-yl)piperidine-2,6-dione] | > 10000 | 12 | 12 | 85 |  | 
17 | CN(Cc1ccncc1)Cc1ccnc(-c2ccc3c(c2)CN(C2CCC(=O)NC2=O)C3=O)c1 (centres unmarked) [Example 160, 3-(5-(4-((methyl(pyridin-4-ylmethyl)amino)methyl)pyridin-2-yl)-1-oxoisoindolin-2-yl) piperidine-2,6-dione] | > 10000 | 30 | 359 | 70 |  | 
18 | CCN(Cc1ccncc1)Cc1ccnc(-c2ccc3c(c2)CN(C2CCC(=O)NC2=O)C3=O)c1 (centres unmarked) [Example 22, 3-(5-(4-((ethyl(pyridin-4-ylmethyl)amino)methyl)pyridin-2-yl)-1-oxoisoindolin-2-yl) piperidine-2,6-dione] | > 10000 | 33 | 537 | 67 |  | 
19 | C[C@@H]1C[C@H](C)CN(Cc2ccnc(-c3ccc4c(c3)CN(C3CCC(=O)NC3=O)C4=O)c2)C1 (stereo partly drawn) [Example 81, 3-(5-(4-(((3S,5R)-3,5-dimethylpiperidin-1-yl)methyl)pyridin-2-yl)-1-oxoisoindolin-2-yl)piperidine-2,6-dione] | > 10000 | 26 | 78 | 64 |  | 
20 | CCN(C)Cc1ccnc(-c2ccc3c(c2)CN(C2CCC(=O)NC2=O)C3=O)c1 (centres unmarked) [Example 5] | > 10000 |  | 44 |  | 5 | 90
